# Where two headings read alike, the source gives them in different places.
# Legend:
# [1] = molecular target: T1, HAase (from bovine testes) (Bos taurus, UniProt Q2YDK3); experiment: In vitro degradation of cHA hydrogels in PBS containing HAase; format: in vitro ADME; conditions: QCT loaded in cHA hydrogels, 8 h, 5 U/mL HAase
# T1 construct: purchased Sigma-Aldrich Co. (St. Louis, MO, USA); host or cells: bovine testes (tissue-derived preparation)
# T1 sequence (Q2YDK3 36-553): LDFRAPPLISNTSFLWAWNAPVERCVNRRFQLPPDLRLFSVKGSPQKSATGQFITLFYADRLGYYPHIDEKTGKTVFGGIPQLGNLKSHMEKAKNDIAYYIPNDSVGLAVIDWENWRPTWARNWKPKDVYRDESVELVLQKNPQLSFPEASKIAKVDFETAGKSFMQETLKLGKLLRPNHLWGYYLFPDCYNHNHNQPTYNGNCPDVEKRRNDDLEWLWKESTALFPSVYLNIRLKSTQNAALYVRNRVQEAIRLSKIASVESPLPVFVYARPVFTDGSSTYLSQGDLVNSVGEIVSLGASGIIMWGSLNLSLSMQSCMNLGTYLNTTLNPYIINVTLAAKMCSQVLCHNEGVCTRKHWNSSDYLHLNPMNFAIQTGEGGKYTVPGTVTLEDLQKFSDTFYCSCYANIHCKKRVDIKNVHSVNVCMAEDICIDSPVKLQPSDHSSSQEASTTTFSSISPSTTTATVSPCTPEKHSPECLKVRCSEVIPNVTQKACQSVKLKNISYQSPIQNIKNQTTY
# Protocol: The in vitro degradation feature of the cHA hydrogel structures was investigated by monitoring the mass change of the hydrogels compared to their initial weight according to a previously reported, slightly modified method. Briefly, to evaluate the weight change of the cHA and QCT-loaded cHA hydrogels (i.e., cHA/QCT1, cHA/QCT3, and cHA/QCT5), each gel specimen (approximately 1.1 g) was placed into 10 mL of a PBS solution containing 5 U/mL of HAase. Upon immersion in the media, the weight of the hydrogels was measured at 2, 4, 6, and 8 h. The remaining weight percentage (%) of each hydrogel compared to the initial weight was recorded.
# [2] = Solubility in various media (HPLC); format: physicochemical; conditions: for solubility: unpublished data
# Protocol: In order to select a solvent for hydrating (i.e., swelling) the cHA gel, the solubilities of QTP hemifumarate and the QTP base in distilled water (DW), phosphate-buffered saline (PBS; pH = 7.4), and ethanol (EtOH) were determined by high-performance liquid chromatography (HPLC). Briefly, an excess amount of QTP hemifumarate or QTP base was added to 1 mL of each solvent and completely vortex-mixed with vortex shaker (Vortex-Genie 2; Scientific Industries, Inc., Bohemia, NY, USA) at […] 37 °C for 1 day. Upon reaching the steady state, each sample was centrifuged and filtered to eliminate undissolved fractions. An HPLC system equipped with an automatic injector (Waters 717 plus), a pump (Waters 1515; Waters Company, Milford, MA, USA), and a UV/VIS detector (Waters 2487) connected with a reverse-phase C18 column (Kinetex C18; 250 × 4.6 mm, 5 μm; Phenomenex, Torrance, CA, USA) was utilized for measuring the concentration of QTP in each medium. The flow rate of the mobile phase and the injection volume of the specimen were set to 1.0 mL/min and 20 μL, respectively. The mobile phase consisted of 30 mM ammonium acetate in DW (pH 6.0) and methanol (30:70, v/v). The absorption wavelength was set to 238 nm for detection and the retention time of QTP was 14 min [23].
# The QTP base precipitate was prepared using a previously reported desalting method with a slight modification. Briefly, QTP hemifumarate (10 mg) was solubilized in a 1 N HCl solution (0.7 mL), and then, a 1 N NaOH solution (0.8 mL) was added for precipitating the QTP base. The sample was then centrifuged at 16,000× g for 5 min and the supernatant portion was eliminated. After adding 1 mL of DW to the precipitate, it was centrifuged again, and the supernatant was removed. Finally, the QTP base precipitate was freeze-dried at −70 °C for 48 h for further use.
# [3] = In vitro release of QTP (dialysis bag method); format: physicochemical; conditions: within 8 h; PBS with 0.5% SLS, 37 °C
# Protocol: The release of QTP from the cHA hydrogels was measured using the dialysis bag method. Briefly, aliquots of the free QTP solution (in ethanol/PEG 400/PBS = 1/1/2 (v/v/v)) and the QTP-loaded hydrogels (i.e., cHA/QTP and cHA/QTP/QCT5) (corresponding to 12 mg of QTP) were loaded into dialysis membranes (2 kDa of molecular weight cut-off; Cellu Sep H1, Membrane Filtration Products Ltd., Seguin, TX, USA). In case of cHA/QTP/QCT5 + HAase group, HAase (1 mg/mL) was added to the cHA/QTP/QCT5 hydrogel. Each membrane sac was immersed in PBS (20 mL) containing 0.5% SLS, and then they were agitated in a shaking water bath (37 °C) at 50 rpm. Aliquots of the release media were collected at 0.5, 1, 2, 4, 6, 8, 24, 48, 72, 96, 144, 168, 192, 288, 336, and 360 h, and the same volume of fresh medium was replenished each time. The QTP concentrations in the release media were quantitatively determined by the HPLC method described above.
# [4] = rats, intragastric administration; cited from earlier work
compound,measurement,setting,value
"O=c1c(O)c(-c2ccc(O)c(O)c2)oc2cc(O)cc(O)c12 [QCT, quercetin]",HAase inhibition,[1],inhibited HAase in a dose-dependent manner
same,solubility,"[2]; ethanol, organic solvent or mixture, EtOH, read-out: Solubility in EtOH",17.6 ± 1.05 mg/mL
same,solubility,"[2]; water, read-out: Solubility in water",< 0.01 mg/mL
"OCCOCCN1CCN(C2=Nc3ccccc3Sc3ccccc32)CC1 [QTP, quetiapine]",QTP diffused from the dialysis membrane,[3],over 90%
same,Biological half-life,[4],2.1 h
"OCCOCCN1CCN(C2=Nc3ccccc3Sc3ccccc32)CC1 [QTP base, quetiapine]",solubility at 1 day,"[2]; ethanol, organic solvent or mixture, thermodynamic from solid, EtOH, Figure 2A",> 50 mg/mL

# From publication PMC7910999, “Hyaluronidase Inhibitor-Incorporated Cross-Linked Hyaluronic Acid Hydrogels for Subcutaneous Injection” (Pharmaceutics, 2021)
